Literature values as cited in patent publication US20170189347A1, “TRANSDERMAL DELIVERY SYSTEM” (priority 2014, published 2017).

Key:
[1] = target: MAO-A (Homo sapiens, UniProt P21397); conditions: in humans
[2] = target: MAO-B (Homo sapiens, UniProt P27338); conditions: in humans
[3] = not given; remark: listed apart in the source

MAO-B, sequence (P27338 whole entry): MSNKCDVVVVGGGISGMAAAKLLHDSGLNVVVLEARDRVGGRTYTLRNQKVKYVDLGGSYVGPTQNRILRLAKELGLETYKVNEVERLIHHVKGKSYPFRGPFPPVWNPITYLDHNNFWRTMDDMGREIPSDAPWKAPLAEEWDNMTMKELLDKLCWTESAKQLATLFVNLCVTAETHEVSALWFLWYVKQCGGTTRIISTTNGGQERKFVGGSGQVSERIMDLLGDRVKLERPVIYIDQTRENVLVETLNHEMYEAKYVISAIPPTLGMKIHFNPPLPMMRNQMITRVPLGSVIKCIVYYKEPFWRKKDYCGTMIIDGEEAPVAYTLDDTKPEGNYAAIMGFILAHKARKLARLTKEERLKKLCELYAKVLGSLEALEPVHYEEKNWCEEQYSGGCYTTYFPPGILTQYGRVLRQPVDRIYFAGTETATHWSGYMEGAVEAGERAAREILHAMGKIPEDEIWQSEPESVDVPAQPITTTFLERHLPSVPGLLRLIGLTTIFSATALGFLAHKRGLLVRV
MAO-A, sequence (P21397 whole entry): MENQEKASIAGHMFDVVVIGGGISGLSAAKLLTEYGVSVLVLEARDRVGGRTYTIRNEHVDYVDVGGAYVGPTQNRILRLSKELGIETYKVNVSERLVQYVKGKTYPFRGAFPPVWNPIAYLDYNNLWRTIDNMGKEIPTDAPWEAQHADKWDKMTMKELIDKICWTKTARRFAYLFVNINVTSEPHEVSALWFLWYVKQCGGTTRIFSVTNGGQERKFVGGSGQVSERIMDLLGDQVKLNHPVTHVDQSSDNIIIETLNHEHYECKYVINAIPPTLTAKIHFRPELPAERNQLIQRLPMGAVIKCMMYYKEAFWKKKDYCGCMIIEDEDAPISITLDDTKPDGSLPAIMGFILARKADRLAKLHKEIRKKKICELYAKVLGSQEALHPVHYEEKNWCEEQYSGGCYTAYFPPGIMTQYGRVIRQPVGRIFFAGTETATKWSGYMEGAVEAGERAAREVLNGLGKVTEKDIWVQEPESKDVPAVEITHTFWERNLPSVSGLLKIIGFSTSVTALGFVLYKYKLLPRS

For C#CCN[C@@H]1CCc2ccccc21 [rasagiline, (1R)-N-(prop-2-yn-1-yl)-2,3-dihydro-1H-inden-1-amine], the “inhibition of MAO-A” value [1] is listed as “not to inhibit MAO-A”, the “inhibition of MAO-B” value [2] is listed as “selectively inhibit MAO-B” and the “solubility in non-crosslinked acrylic copolymer PSA DT 87-4098” value (DT 87-4098) is listed as 54 wt %. For the same compound, the “solubility in non-crosslinked acrylic copolymer PSA DT 87-9088” value (DT 87-9088) was 111 wt %, the “solubility in non-crosslinked acrylic copolymer PSA DT 87-9301” value (DT 87-9301) was 78 wt % and the “solubility in polyisobutylene (PIB) PSA” value (PIB) was “about 8 wt %”. For the same compound, the “solubility in silicone PSA” value (silicone PSA) was roughly 6 wt % and the solubility in water [3] was 0.025 grams of drug per liter of water.

For C#CCN(C)[C@H](C)Cc1ccccc1 [selegiline], the solubility in water [3] is listed as 0.025 grams of drug per liter of water.
